Where two headings read alike, the source gives them in different places.
Columns and labels:
phospho-ERK = assay: Cellular phospho-ERK assay; assay type: cell-based; details: NCI-H358 cells, 2 hour incubation, ratio of p-Erk vs total Erk, read-out: IC50 (nM) pERK (Cell)
Description: NCI-H358 cells (ATCC® CRL-5807™) were cultured in T150 flask in growth medium (RPMI medium 1640-GlutaMAX™-I (ThermoFisher Scientific 61870) containing 10% fetal bovine serum (ThermoFisher Scientific 10091148)). The cells were harvested in growth medium after TrypLE (ThermoFisher scientific 12604021) digestion and were seeded in a 384-well collagen coated cell culture plate (Corning 356702) at a density of 15,000 cells/well, and incubated at 37° C., 5% CO2 overnight. The compound dose-response titrations were prepared and appropriate amounts of compounds were dispensed in a 384-well intermediate plate using an Echo 550 liquid handler. RPMI medium 1640-GlutaMAX™-I were added to the intermediate plate and transferred to 384-well cell culture plate, which was incubated at 37° C., 5% CO2 for 2 hours. After removal of medium from the plate, cells were lysed in lysis buffer from Alpha SureFire® Ultra™ Multiplex p-Erk and total Erk assay kit (PerkinElmer MPSU-PTERK) containing Halt™ Protease and Phosphotase inhibitor cocktail (ThermoFisher Scientific 78446) at room temperature with constant shaking at 300 rpm for 30 minutes. The cell lysates were then transferred to OptiPlate-384 plate (PerkinElmer 6005620) and the phosphorylation of Erk and total Erk levels were detected by Alpha SureFire Ultra Multiplex p-Erk kit (PerkinElmer MPSU-PTERK) following the manufacturer's protocol. Assay plates were read on an EnVision Multimode Plate Reader (PerkinElmer), and the ratio of p-Erk vs total Erk in each well was used as the final readout. Dose response curves were analyzed using a 4-parameter logistic model to calculate IC50 values using spotfire software.

[1] = molecular target: Biotinylated KRAS G12C protein (Homo sapiens (Human), UniProt P01116, C118S/C51S/C80L/G12C); assay: SOS-catalyzed nucleotide exchange assay (TR-FRET); assay type: biochemical; details: in vitro apparent potency; preincubation time of 60 minutes prior to addition of SOS
Biotinylated KRAS G12C protein, sequence (P01116 other isoform, or with tags, fused parts or gaps, stated change not applied): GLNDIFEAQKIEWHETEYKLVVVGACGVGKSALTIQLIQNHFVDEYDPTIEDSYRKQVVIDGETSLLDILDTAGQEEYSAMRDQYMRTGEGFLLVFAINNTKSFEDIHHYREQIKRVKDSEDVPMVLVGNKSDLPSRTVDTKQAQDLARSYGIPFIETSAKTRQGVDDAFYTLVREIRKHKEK
Description: The SOS-catalyzed nucleotide exchange assay utilizes a preformed complex of recombinant biotinylated KRAS protein containing G12C/C51S/C80L/C118S mutations (183 amino acids; biotin on K10; leader sequence which is an AviTag; referred to as SEQ ID NO: 1 or “Biotinylated KRAS G12C protein” hereafter), Bodipy-GDP, and Terbium-streptavidin. Compounds are added to this complex and then after incubation for 60 minutes, the mixture is treated with recombinant SOS protein and unlabeled GTP. Small molecule inhibitors stabilize the Bodipy-GDP complex whereas the untreated protein rapidly exchanges Bodipy-GDP for unlabeled GTP resulting in reduced TR-FRET signal.
Biotinylated KRAS G12C protein (SEQ ID NO: 1) is diluted to 2 μM in an EDTA buffer (20 mM HEPES, 150 mM sodium chloride, 10 mM EDTA, and 0.01% Tween) and incubated at room temperature for one hour. This mixture is then further diluted to 90 nM in an assay buffer (20 mM HEPES, 150 mM sodium chloride, 10 mM magnesium chloride, and 0.005% Tween) containing 15 nM of Terbium-Streptavidin (Invitrogen, catalog #PV3577) and 900 nM of Bodipy-GDP and incubated at room temperature for six hours. This solution is referred to as Biotinylated KRAS G12C mixture.
Each test compound (10 mM stock in DMSO) is diluted in DMSO to make a 10-point, 3-fold dilution series in a 384-well low dead volume microplate (Labcyte, catalog #LP-0200). Once titrations are made, 10 nL of the diluted compounds is acoustically dispensed into a 384-well plate (Corning, catalog #3820) using an Echo 550 (Labcyte).
Each well of the plate receives 3 μL Biotinylated KRAS G12C mixture that had been incubating for six hours and 3 μL of assay buffer using a BioRAPTR (Beckman Coulter) and is incubated at room temperature for 60 minutes. Each well then receives 3 μL of 240 nM recombinant human SOS protein and 9 mM GTP (Sigma, G8877) in assay buffer and is incubated at room temperature for 60 minutes.
The time-resolved fluorescence resonance energy transfer signal of the plate is measured on an Envision (PerkinElmer) plate reader: Excitation filter=340 nm; emission1=495 nm; emission2=520 nm; dichroic mirror=D400/D505; delay time=100 μs. The signal of each well is determined as the ratio of the emission at 520 nm to that at 495 nm. Percent effect of each well is determined after normalization to control wells containing DMSO (no effect) or a saturating concentration of inhibitor (max effect). The apparent effect as a function of compound concentration is fit to a four parameter logistic equation.

SMILES | IC50 (phospho-ERK) [nM] | IC50 [1] [nM] | IC50 (phospho-ERK; Homo sapiens, NCI-H358, 2 h) [nM]
C=CC(=O)N1C[C@H](C)N(c2nc(=O)n3c4nc(c(F)cc24)-c2c(F)cccc2OCC(F)(F)CCc2ccnc(C(C)C)c2-3)C[C@H]1C [Example 52, (5aRa,18aRa)-2-[(2S,5R)-2,5-dimethyl-4-(prop-2-enoyl)piperazin-1-yl]-12,12,18,21-tetrafluoro-6-(propan-2-yl)-10,11,12,13-tetrahydro-4H-1,19-(ethanediylidene)pyrido[4,3-f]pyrimido[1,6-h][1,8,10]benzoxadiazacyclotridecin-4-one] | 9.3 | 1.8 | –
C=CC(=O)N1CC(C)N(c2nc(=O)n3c4nc(c(F)cc24)-c2c(ccc(F)c2F)OCC(F)(F)CCc2ccnc(C(C)C)c2-3)CC1C [Example 54, (5aRa,18aRa)-2-[(2S,5R)-2,5-dimethyl-4-(prop-2-enoyl)piperazin-1-yl]-12,12,17,18,21-pentafluoro-6-(propan-2-yl)-10,11,12,13-tetrahydro-4H-1,19-(ethanediylidene)pyrido[4,3-f]pyrimido[1,6-h][1,8,10]benzoxadiazacyclotridecin-4-one] | 16 | 2.4 | –
C=CC(=O)N1CC(C)N(c2nc(=O)n3c4nc(c(F)cc24)-c2c(F)ccc(F)c2OCC(F)(F)CCc2ccnc(C(C)C)c2-3)CC1C [Example 55, (5aRa,18aRa)-2-[(2S,5R)-2,5-dimethyl-4-(prop-2-enoyl)piperazin-1-yl]-12,12,15,18,21-pentafluoro-6-(propan-2-yl)-10,11,12,13-tetrahydro-4H-1,19-(ethanediylidene)pyrido[4,3-f]pyrimido[1,6-h][1,8,10] benzoxadiazacyclotri-decin-4-one] | – | 2.7 | 29
C=CC(=O)N1CC(C)N(c2nc(=O)n3c4nc(c(F)cc24)-c2c(F)cc(F)cc2OCC(F)(F)CCc2ccnc(C(C)C)c2-3)CC1C [Example 56, (5aRa,18aRa)-2-[(2S,5R)-2,5-dimethyl-4-(prop-2-enoyl)piperazin-1-yl]-12,12,16,18,21-pentafluoro-6-(propan-2-yl)-10,11,12,13-tetrahydro-4H-1,19-(ethanediylidene)pyrido[4,3-f]pyrimido[1,6-h][1,8,10] benzoxadiazacyclotri-decin-4-one] | – | 1.1 | 8
[2H]C1([2H])Oc2ccc(F)c(F)c2-c2nc3c(cc2Cl)c(N2CC(C)N(C(=O)C=C)CC2C)nc(=O)n3-c2c(ccnc2C(C)C)OC1([2H])[2H] [Example 57, (5aSa,17aRa)-20-chloro-2-[(2S,5R)-2,5-dimethyl-4-(prop-2-enoyl)piperazin-1-yl]-16,17-difluoro-6-(propan-2-yl)-11,12-di[(^2H)hydro](11,12-^2H2)-4H-1,18-(ethanediylidene)pyrido [4,3-e]pyrimido[1,6-g] [1,4,7,9]benzodioxadiaza-cyclododecin-4-one] | – | 0.51 | 6.1
C=CC(=O)N1C[C@H](C)N(c2nc(=O)n3c4nc(c(F)cc24)-c2c(ccc(F)c2F)OCC(F)(F)CCc2ncnc(C(C)C)c2-3)C[C@H]1C [Example 58, 2-[(2S,5R)-2,5-dimethyl-4-(prop-2-enoyl)piperazin-1-yl]-12,12,17,18,21-pentafluoro-6-(propan-2-yl)-10,11,12,13-tetrahydro-4H-1,19-(ethanediylidene)dipyrimido [4,5-f:1′,6′-h][1,8,10] benzoxadiazacyclo-tridecin-4-one] | – | 0.74 | 14
C=CC(=O)N1C[C@H](C)N(c2nc(=O)n3c4nc(c(Cl)cc24)-c2c(F)cccc2OCC(F)(F)COc2ccnc(C(C)C)c2-3)C[C@H]1C [Example 59, 21-chloro-2-[(2S,5R)-2,5-dimethyl-4-(prop-2-enoyl)piperazin-1-yl]-12,12,18-trifluoro-6-(propan-2-yl)-12,13-dihydro-4H,11H-1,19-(ethanediylidene)pyrido[4,3-f]pyrimido[1,6-h][1,5,8,10] benzodioxadiazacyclo-tridecin-4-one] | – | 0.91 | 6.1
C=CC(=O)N1C[C@H](C)N(c2nc(=O)n3c4nc(c(F)cc24)-c2c(F)cccc2OCC2(CCc4ccnc(C(C)C)c4-3)CC2)C[C@H]1C [Example 60, 2′-[(2S,5R)-2,5-dimethyl-4-(prop-2-enoyl)piperazin-1-yl]-18′,21′-difluoro-6′-(propan-2-yl)-10′,11′-dihydro-4′H,13′H-spiro[cyclopropane-1,12′-[14]oxa[3,5,7,20]tetraaza[1,19] (ethanediylidene)pyrido[4,3-f]pyrimido[1,6-h][1,8,10]benzoxadiazacyclotri-decin]-4′-one] | – | 1.5 | 17
C=CC(=O)N1C[C@H](C)N(c2nc(=O)n3c4nc(c(F)cc24)-c2c(F)ccc(F)c2OCC2(CCc4ccnc(C(C)C)c4-3)CC2)C[C@H]1C [Example 61, 2′-[(2S,5R)-2,5-dimethyl-4-(prop-2-enoyl)piperazin-1-yl]-15′,18′,21′-trifluoro-6′-(propan-2-yl)-10′,11′-dihydro-4′H,13′H-spiro[cyclopropane-1,12′-[14]oxa [3,5,7,20]tetraaza[1,19] (ethanediylidene)pyrido[4,3-f]pyrimido[1,6-h][1,8,10]benzoxadiazacyclotri-decin]-4′-one] | – | 2.3 | 43
C=CC(=O)N1C[C@H](C)N(c2nc(=O)n3c4nc(c(F)cc24)-c2c(ccc(F)c2F)OCC2(CCc4ccnc(C(C)C)c4-3)CC2)C[C@H]1C [Example 62, 2′-[(2S,5R)-2,5-dimethyl-4-(prop-2-enoyl)piperazin-1-yl]-17′,18′,21′-trifluoro-6′-(propan-2-yl)-10′,11′-dihydro-4′H,13′H-spiro[cyclopropane-1,12′-[14]oxa [3,5,7,20]tetraaza[1,19] (ethanediylidene)pyrido[4,3-f]pyrimido[1,6-h][1,8,10]benzoxadiazacyclotri-decin]-4′-one] | – | 3.5 | 54
C=CC(=O)N1C[C@H](C)N(c2nc(=O)n3c4nc(c(Cl)cc24)-c2c(F)cccc2OCCCc2ccnc(C(C)C)c2-3)C[C@H]1C [Example 63, 20-chloro-2-[(2S,5R)-2,5-dimethyl-4-(prop-2-enoyl)piperazin-1-yl]-17-fluoro-6-(propan-2-yl)-11,12-dihydro-4H,10H-1,18-(ethanediylidene)pyrido[4,3-e]pyrimido[1,6-g][1,7,9] benzoxadiazacyclodo-decin-4-one] | – | 3.6 | 2
[2H]C1([2H])Oc2ccc(F)c(F)c2-c2nc3c(cc2F)c(N2C[C@@H](C)N(C(=O)C=C)C[C@@H]2C)nc(=O)n3-c2c(ccnc2C(C)C)OC1([2H])[2H] [Example 64, 2-[(2S,5R)-2,5-Dimethyl-4-(prop-2-enoyl)piperazin-1-yl]-16,17,20-trifluoro-6-(propan-2-yl)-11,12-di[(^2H)hydro](11,12-^2H2)-4H-1,18-(ethanediylidene)pyrido [4,3-e]pyrimido[1,6-g][1,4,7,9] benzodioxadiazacyclo-dodecin-4-one] | – | 5.7 | 33
